# Marks after values point to notes of the source that are not given here. Square brackets hold non-standard residues; d marks the D form. Ends that are not written are not given here. Tyr(3,5-Br2) = N[C@@H](Cc1cc(Br)c(O)c(Br)c1)C(=O)O; Nle = CCCC[C@H](N)C(=O)O
# Legend:
# hepatocarcinoma H22 = test: survival of mice transplanted with H22 hepatocarcinoma; format: in vivo, BALB/c mice; details: for survival of mice transplanted with H22 tumor cells: 80 μg/kg/day, vs saline control P<0.05
# Procedure: Healthy BALB/c mice were randomized into groups of CMS-024.04, CMS-025.05, CMS-024.14, and CMS-024.16 (80 μg/kg/day), 5-Fu (20 mg/kg/day, once for every two days), saline (0.2 ml/day), and normal group (without tumor cell inoculation).
# Mice inoculated with hepatocarcinomas for 6-8 days were sacrificed. The ascites was collected and the cell concentration adjusted to 5×10^7/ml with D-Hanks' solution. 0.2 ml of this was inoculated intraperitoneally to each BALB/c mouse except for the normal controls.
# Administration of test substance was started on the next day after the tumor cell inoculation. The peptides and saline were applied daily and 5-FU once every two days for 60 continuous days or until the death of the mice.
# The time of death was recorded and survival time prolongation calculated. Survival time prolongation was calculated as below: Survival prolongation (%)=(Average survival days of test group)−(Average survival days of saline control group)/(Average survival days of saline group)×100%.
# [1] = system: human gastric carcinoma BGC-823 xenograft; test: nude mice-transplanted human gastric carcinoma BGC-823 xenograft; format: in vivo, BALB/c (nu/nu) nude mice; details: 30 days
# Procedure: Hunan gastric carcinoma cell line BGC-823 at log phase were adjusted to the concentration of 2×10^7/ml and then inoculated subcutaneously to the back of nude mice (0.1 ml per mouse). The inoculated animals were randomized into groups of CMS024-16 (160 μg/kg/day, 320 μg/kg/day, and 640 μg/kg/day, all at 0.2 ml/day), positive control (5-Fu, 20 mg/kg/day at 0.2 ml/day), and negative control (normal saline, 0.2 ml/day). Administration of test substances by intraperitoneal injection was started on the next day after tumor implantation once per day for 30 continuous days. On the next day after the last injection, the tumor masses were collected and their weights determined Inhibition rate=(Mean weight of negative control−Mean weight of test group)/(Mean weight of negative control)×100%
# skin allograft = test: survival of skin allograft in mice (CMS-014); format: in vivo, Balb/c mice (C57BL/6 donors)
# Procedure: Half of the mice were male and half were female.
# The test substances were dissolved in 0.5 ml saline and intraperitoneally injected for 5 days before the skin transplantation, followed by daily injection until the end point of rejection of the skin graft.
# A patch of hair at the back of Balb/c mice was removed by 8% Na2S solution. On the next day, a wound bed of approximately 1 cm^2 was produced by removing the skin surgically, and then a piece of full-thickness tail skin of 1 cm^2 from sex-matched donor C57BL/6J mice was placed onto the wound bed. The surgical site was covered and protected with a layer of paraffin gauze, and a covering plaster was applied. The plaster was removed 6 days after transplantation^[1], and the recipient mice were monitored daily for the viability of the allograft. The end point of rejection was taken as only less than 10% of the allograft remained viable^[2].
# [2] = system: Balb/c mice swimming time model; test: exhaustive swimming time of mice (Example 11); format: in vivo
# Procedure: Balb/c male mice were randomized into groups of CMS-001.30 (20 μg/kg/day), CMS-001.31 (20 μg/kg/day), EPO (1000 u/kg/day, three times per week), and saline control. The test substance was dissolved in 0.5 ml saline and applied intraperitoneally once per day for 30 continuous days (EPO was replaced with saline if EPO was not applied). On the tenth day, the mice were trained to swim for 10 min at water temperature of 25±1° C. 30 min after the last test substance administration, the mice were placed to swim in the swimming tank (50 cm×50 cm×40 cm). The depth of water was 30 cm and water temperature 25±1° C. The limbs of the mice were kept moving in the whole process. The swimming (min) time of the mice until death was recorded. Exhaustive swimming time extension rate (ESTR) (%)=(Mean exhaustive swimming time of test group−Mean exhaustive swimming time of saline control)/(Mean exhaustive swimming time of saline control)×100%. 1.4 Statisitics
# BALB/c mice [3] = test: serum SOD, MDA, AST, ALT levels after exhaustive exercise; format: in vivo
# Procedure: (§1) The mice were randomized into groups of CMS-001 (20 μg/kg/day, 5 μg/kg/day), CMS-008 (500 μg/kg/day, 125 μg/kg/day), and saline control. The test substance was administered by intraperitoneal injection once per day for 30 continuous days. A week after the start the of the test substance administration, the mice were trained to swim for 10 min, at water temperature of 25±1° C. 30 min after the last injection, the mice were placed to swim in the swimming tank without addition of weight at water depth of 30 cm and temperature of 25±1° C.^[4]. By the first time the mice sunk, the mice were rescued and blood was collected from the orbital sinus immediately. The serum was isolated and the MDA, SOD, AST, and ALT levels determined.
# BALB/c mice [4] = test: blood lactic acid level of mice after exercise; format: in vivo; details: for Lactic acid elimination after rest: 20 min rest
# Procedure: (§2) The mice were randomized into groups of CMS-001 (20 μg/kg/day, 5 μg/kg/day), CMS-008 (500 μg/kg/day, 125 μg/kg/day), and saline control. The test substance was administered by intraperitoneal injection once per day for 30 continuous days. A week after the start the of the test substance administration, the mice were trained to swim for 10 min, at water temperature of 25±1° C.
# 30 min after the last injection, 20 μl of blood was first collected from the orbital sinus. The mice were then weighed, and lead pieces corresponding to 4% of the body weight were wrapped to the tails of the mice at about 1 cm away from the body. The mice were placed to swim in the swimming tank for 10 min, at water depth of 30 cm and temperature of 30±1° C. The limbs of the mice were kept moving in the whole process. Immediately after the exercise and after resting for 20 min, 20 μl of blood was collected from the orbital sinus again. The blood was added into 40 μl hypotonic buffer and sonicated. Lactic acid level in the blood was determined by the lactic acid analyzer.
# The amount of lactic acid increase after exercise is calculated based on the amount of lactic acid level immediately after exercise minus the lactic acid level before exercise.
# The amount of lactic acid elimination after rest was calculated based on the amount of lactic acid level immediately after exercise minus the lactic acid level after rest.
# BALB/c mice [5] = test: serum urea nitrogen level after exercise; format: in vivo
# Procedure: as §1, with “weight for 90 min,” for “weight”, “cm” for “cm and”, “30±1° C. The” for “25±1° C.^[4]. By the first time the mice sunk, the”, “then allowed to rest for 30 min,” for “rescued”, “sinus.” for “sinus immediately.”, “BUN was determined by a fully automated Biochemistry Analyser.” for “MDA, SOD, AST, and ALT levels determined.”
# [6] = system: BALB/c mice exhaustive swimming model; test: exhaustive swimming time of mice; format: in vivo; details: 30 days
# Procedure: as §2
# 30 min after the last injection, the mice were weighed, and lead pieces corresponding to 5% of the body weight were wrapped to the tails of the mice at about 1 cm away from the body. The mice were placed in the swimming tank, at water depth of 30 cm and temperature of 25±1° C. The limbs of the mice were kept moving in the whole process. The time of swimming until the death was recorded.
# BALB/c mice [7] = test: liver glycogen level of mice; format: in vivo
# Procedure: The mice were randomized into groups of CMS-001 (20 μg/kg/day, 5 μg/kg/day), CMS-008 (500 μg/kg/day, 125 μg/kg/day), and saline control. The test substance was administered by intraperitoneal injection once per day for 30 continuous days. A week after the start the of the test substance administration, the mice were trained to swim for 10 min, at water temperature of 25±1° C. 30 min after the last injection, the mice were killed by cervical dislocation and the liver was dissected, washed with saline, and blotted dry with filter paper. About 100 mg liver was accurately weighed and the liver glycogen level was determined by the Anthracene Ketone reagent kit. Glycogen weight (mg) in every 100 g of liver=DU/DS×0.5×homogenization liquid vol./liver weight(g)×100×0.9.
# [8] = Table 6.1 experiment, 20 mg/kg once every two days
# [9] = Table 6.2 experiment, 20 mg/kg once every two days
# [10] = Table 6.2 experiment, 80 μg/kg daily i.p.
# [11] = 1000 u/kg/day, 3 times per week
# [12] = Table 6.1 experiment, 80 μg/kg daily i.p.
molecule,measurement,setting,value
"O=c1[nH]cc(F)c(=O)[nH]1 [5-Fu, 5-fluorouracil, reference compound]",Survival Prolongation,hepatocarcinoma H22; [8],84.5* %
same,Survival time (first column),hepatocarcinoma H22; [8],30.0 ± 2.0 days
same,Survival time (second column),hepatocarcinoma H22; [8],32.5 ± 6.3 days
same,Survival Prolongation,hepatocarcinoma H22; [9],33.3%
same,Survival time (first column),hepatocarcinoma H22; [9],18.0 ± 0.4 days
same,Survival time (second column),hepatocarcinoma H22; [9],24.5 ± 11.1 days
same,Inhibition rate,[1]; 20 mg/Kg/day i.p.,40.8* %
same,Tumor weight,[1]; 20 mg/Kg/day i.p.,1.70 ± 0.70 g
"(3,5-dibromo-Tyr)-Ser-Leu ([Tyr(3,5-Br2)]-Ser-Leu) [CMS-024.14]",survival of mice transplanted with H22 tumor cells,hepatocarcinoma H22,prolong the survival
same,Survival Prolongation,hepatocarcinoma H22; [10],50.3%
same,Survival time (first column),hepatocarcinoma H22; [10],16.0 ± 0.0 days
same,Survival time (second column),hepatocarcinoma H22; [10],27.6 ± 8.5 days
AAHHPDDFNPSV [CMS-014],MST (mean survival time of skin allograft),skin allograft; 125 μg/kg/day i.p.,10.0 ± 0.5 days
same,MST (mean survival time of skin allograft),skin allograft; 250 μg/kg/day i.p.,9.8 ± 0.5 days
same,MST (mean survival time of skin allograft),skin allograft; 500 μg/kg/day i.p.,9.8 ± 0.4 days
"Erythropoietin [EPO, reference compound]",ESTR (exhaustive swimming time extension rate),[2]; [11],31.3* %
same,Swimming time,[2]; [11],126.1 ± 20.4 min
KAVGHLDDLPGAL [CMS-008],ALT,BALB/c mice [3]; 500 μg/kg/day,32.9 ± 5.2 U/L
same,AST,BALB/c mice [3]; 500 μg/kg/day,116.6 ± 18.8 U/L
same,MDA,BALB/c mice [3]; 500 μg/kg/day,4.1 ± 0.4 nmol/L
same,SOD,BALB/c mice [3]; 500 μg/kg/day,415.7 ± 31.5 U/ml
same,Lactic acid increase after exercise,BALB/c mice [4]; 125 μg/kg/day,2.70 ± 0.15 mmol/L
same,Lactic acid increase after exercise,BALB/c mice [4]; 500 μg/kg/day,2.23 ± 0.30 mmol/L
same,Lactic acid elimination after rest,BALB/c mice [4]; 125 μg/kg/day,3.62 ± 0.57 mmol/L
same,Lactic acid elimination after rest,BALB/c mice [4]; 500 μg/kg/day,3.71 ± 0.22 mmol/L
same,Urea Nitrogen,BALB/c mice [5]; 125 μg/kg/day,7.2 ± 2.3 mmol/L
same,Urea Nitrogen,BALB/c mice [5]; 500 μg/kg/day,7.1 ± 2.0 mmol/L
same,Swimming time,[6]; 125 μg/kg/day i.p.,106.5 ± 19.4 min
same,Swimming-time extension,[6]; 125 μg/kg/day i.p.,57.9* %
same,Swimming time,[6]; 500 μg/kg/day i.p.,116.5 ± 17.7 min
same,Swimming-time extension,[6]; 500 μg/kg/day i.p.,72.7* %
same,liver glycogen,BALB/c mice [7]; 125 μg/kg/day,1275 ± 726 mg/100 g liver tissue
same,liver glycogen,BALB/c mice [7]; 500 μg/kg/day,1408 ± 457 mg/100 g liver tissue
Leu-Tyr-Ser (LYS; Synthetically prepared peptide sequence) [CMS-024.16],survival of mice transplanted with H22 tumor cells,hepatocarcinoma H22,prolong the survival
same,Survival Prolongation,hepatocarcinoma H22; [10],57.8%
same,Survival time (first column),hepatocarcinoma H22; [10],18.0 ± 1.0 days
same,Survival time (second column),hepatocarcinoma H22; [10],29.0 ± 7.9 days
same,Inhibition rate,[1]; 160 μg/Kg/day i.p.,54.0* %
same,Tumor weight,[1]; 160 μg/Kg/day i.p.,1.32 ± 0.68 g
same,Inhibition rate,[1]; 320 μg/Kg/day i.p.,44.7* %
same,Tumor weight,[1]; 320 μg/Kg/day i.p.,1.59 ± 1.017 g
same,Inhibition rate,[1]; 640 μg/Kg/day i.p.,54.4* %
same,Tumor weight,[1]; 640 μg/Kg/day i.p.,1.31 ± 0.77 g
PTTKTY [CMS-001.30],ESTR (exhaustive swimming time extension rate),"[2]; 20 μg/kg/day i.p., 30 days",88.3* %
PTTKTYFP [CMS-001.31],ESTR (exhaustive swimming time extension rate),"[2]; 20 μg/kg/day i.p., 30 days",76.0* %
PTTKTYFPHF [CMS-001],ALT,BALB/c mice [3]; 20 μg/kg/day,32.7 ± 3.0 U/L
same,AST,BALB/c mice [3]; 20 μg/kg/day,117.0 ± 19.2 U/L
same,MDA,BALB/c mice [3]; 20 μg/kg/day,4.4 ± 0.2 nmol/L
same,SOD,BALB/c mice [3]; 20 μg/kg/day,400.6 ± 45.6 U/ml
same,Lactic acid increase after exercise,BALB/c mice [4]; 5 μg/kg/day,2.60 ± 0.33 mmol/L
same,Lactic acid increase after exercise,BALB/c mice [4]; 20 μg/kg/day,2.56 ± 0.41 mmol/L
same,Lactic acid elimination after rest,BALB/c mice [4]; 5 μg/kg/day,2.96 ± 0.33 mmol/L
same,Lactic acid elimination after rest,BALB/c mice [4]; 20 μg/kg/day,3.14 ± 0.64 mmol/L
same,Urea Nitrogen,BALB/c mice [5]; 5 μg/kg/day,6.9 ± 1.6 mmol/L
same,Urea Nitrogen,BALB/c mice [5]; 20 μg/kg/day,7.3 ± 2.1 mmol/L
same,Swimming time,[6]; 5 μg/kg/day i.p.,105.7 ± 19.8 min
same,Swimming-time extension,[6]; 5 μg/kg/day i.p.,56.7* %
same,Swimming time,[6]; 20 μg/kg/day i.p.,99.8 ± 30.6 min
same,Swimming-time extension,[6]; 20 μg/kg/day i.p.,48.0* %
same,liver glycogen,BALB/c mice [7]; 5 μg/kg/day,439 ± 271 mg/100 g liver tissue
same,liver glycogen,BALB/c mice [7]; 20 μg/kg/day,1567 ± 604 mg/100 g liver tissue
"Tyr-Ser-Nle (Tyr-Ser-[Nle]) [CMS-024.04, Nle = norleucine (2-aminohexanoic acid)]",survival of mice transplanted with H22 tumor cells,hepatocarcinoma H22,prolong the survival
same,Survival Prolongation,hepatocarcinoma H22; [12],15.8* %
same,Survival time (first column),hepatocarcinoma H22; [12],19.0 ± 0.9 days
same,Survival time (second column),hepatocarcinoma H22; [12],20.2 ± 4.4 days
Tyr-Thr-Val (YTV; Synthetically prepared peptide sequence) [CMS-024.05],survival of mice transplanted with H22 tumor cells,hepatocarcinoma H22,prolong the survival
same,Survival Prolongation,hepatocarcinoma H22; [12],10.4* %
same,Survival time (first column),hepatocarcinoma H22; [12],19.0 ± 1.0 days
same,Survival time (second column),hepatocarcinoma H22; [12],19.3 ± 2.4 days
